Reference: patent publication US20080287398A1, “COLD MENTHOL RECEPTOR-1 ANTAGONISTS” (priority 2007, published 2008)

How the values were obtained:
rats = assay: Reversal of icilin-induced behaviors (wet-dog shakes) in rats; assay type: in vivo; details: rat, 1 h post-icilin
Experimental: In this paradigm, icilin-induced shaking was counted for 10 minutes followed by administration of a compound of Formula (I). The diminution of shaking behavior is represented as a percent inhibition relative to icilin-induced shakes in the absence of test compound administration, as described by the following formula: % Inhibition=[1−(WDS count following test compound dose/WDS count prior to test compound dose)]×100.

human TRPM8 = target: T1, human TRPM8 (Homo sapiens, UniProt Q7Z2W7); assay: In vitro human TRPM8 functional assay (Ca2+ dye, FDSS, 100 nM icilin); assay type: cell-based; details: HEK293 cells transiently transfected with human TRPM8, read-out: hTRPM8 IC50
T1 construct: the full-length cDNAs encoding human and rat TRPM8 were subcloned; expressed in transfected cells; host or cells: HEK293 (transient, FuGENE 6, pCI-NEO vector)
Experimental: (§1) For functional expression of TRPM8, the full-length cDNAs encoding human and rat TRPM8 were subcloned into pCl-NEO mammalian expression vectors. The expression constructs were transiently transfected into HEK293 cells according to the FuGENE 6 transfection reagent® (ROCHE) instructions. HEK293 cells were routinely grown as monolayers in Dulbecco's minimum essential medium supplemented with 10% FBS, 1 mM L-glutamine, 100 units/mL penicillin and 100 ug/mL streptomycin. Cells were maintained in 5% CO2 at 37° C. […] Following incubation, plates were inserted into a FDSS instrument, where cells were challenged with a compound of Formula (I) (at varying concentrations) and intracellular Ca^2+ was measured for 5 min prior to the addition of 100 nM icilin. IC50 values for compounds of the present invention were determined from eight-point dose-response studies
(§2) Maximal fluorescence intensity (FI) achieved upon addition of icilin was exported from the FDSS and further analyzed using GraphPad Prism 3.02 (Graph Pad Software Inc., CA, U.S.A.). […] The dose response curves from the average of quadruplicate wells for each data point were analyzed by using nonlinear regression of either sigmoidal dose response or sigmoidal dose response (variable slope). Finally, the IC50 values were calculated with the best-fit dose curve determined by Prism.

rat TRPM8 = target: T2, rat TRPM8 (Rattus norvegicus, UniProt Q8R455); assay: In vitro rat TRPM8 functional assay (Ca2+ dye, FDSS, 100 nM icilin); assay type: cell-based; details: HEK293 cells transiently transfected with rat TRPM8, read-out: rTRPM8 IC50
T2 construct: the full-length cDNAs encoding human and rat TRPM8 were subcloned; expressed in transfected cells; host or cells: HEK293 (transient, FuGENE 6, pCI-NEO vector)
Experimental: as §1, §2

canine TRPM8 = target: T3, canine TRPM8 (Canis lupus familiaris, UniProt Q1A7N1); assay: TRPM8 patch clamp assay (whole-cell, HEK293 cells); assay type: cell-based
T3 construct: expressed in transfected cells
Experimental: For patch clamp experiments, HEK293 cells stably transfected with canine TRPM8 were cultured in DMEM supplemented with 10% fetal bovine serum, 100 units/ml penicillin, 100 μg/ml streptomycin and 1 mg/ml G418. Cells were maintained at 37° C. and in 5% CO2.
The extracellular solution contained (in mM): NaCl, 132; EGTA, 1; KCl, 5.4; MgCl2, 0.8; HEPES, 10; glucose, 10; pH=7.4. Recordings were performed using the conventional whole-cell patch clamp technique, 1-2 days after plating cells onto glass coverslips at densities appropriate for single cell recording. Currents were amplified by a patch clamp amplifier and filtered at 2 kHz (Axopatch 200B, Molecular Devices, Union City, Calif.). Menthol (100 μM) was applied to the cell at 0.5 ml/min via a gravity-fed perfusion system. Recordings involving menthol activation were performed at 22° C.
In experiments where temperatures were varied, temperature ramps were generated by cooling the perfusate in an in-line cooler (Model SC-20, Warner Instruments, Hamden, Conn.) controlled by a temperature controller (Model CL-100, Warner Instruments). The temperature in the vicinity of the recorded cell was measured with a custom-made miniature thermo-microprobe connected to a monitoring thermometer (Model TH-8, Physitemp, Clifton, N.J.), and sampled using Digidata 1322A and pClamp 9.0 (Molecular Devices), as were the currents concurrently measured in the whole-cell patch clamp mode. The current was continuously sampled (at 100 Hz) at a holding potential of −60 mV.
Compounds were diluted from 10 mM DMSO stocks (stored at −20° C.) into an extracellular solution either containing 100 μM menthol or subjecting to cooling. Increasing concentrations of a compound were applied to a cell in a cumulative manner and concentration-dependent responses were measured after steady-state activation was achieved by either 100 μM menthol or cooling to 10° C. A saturating concentration of a reference antagonist was applied at the end of an experiment (either in the presence of 100 μM menthol or 10° C. temperature) to establish the baseline from which all the other measurements were subtracted.
Percentage inhibition by a compound was calculated as follows: 100×(1−Icomp/I0); where Icomp and I0 are steady-state current amplitudes in either the presence or absence of a concentration of the compound.

male SD rats = assay: Chronic constriction injury (CCI) model of neuropathic pain, acetone-induced hypersensitivity; assay type: in vivo; details: rat; for ED50: po
Experimental: Through the mesh floor a series of five applications of acetone (0.05 mL/application) was sprayed onto the bottom of the paw using a multidose syringe device. A positive response took the form of an abrupt withdrawal or lifting of the paw. The percentage of positive responses from the five trials represented the individual's overall response that was then averaged over the entire treatment group. […] An ascending dose response relationship (as in Table 10 below) was generated by addition of successive doses of test compound followed by re-assessment of behavior.

[1] = IC50, mode of activation Menthol (100 μM), HEK293 cells stably transfected with canine TRPM8, 100 μM menthol, 22° C.

T3 sequence (Q1A7N1 1-1104): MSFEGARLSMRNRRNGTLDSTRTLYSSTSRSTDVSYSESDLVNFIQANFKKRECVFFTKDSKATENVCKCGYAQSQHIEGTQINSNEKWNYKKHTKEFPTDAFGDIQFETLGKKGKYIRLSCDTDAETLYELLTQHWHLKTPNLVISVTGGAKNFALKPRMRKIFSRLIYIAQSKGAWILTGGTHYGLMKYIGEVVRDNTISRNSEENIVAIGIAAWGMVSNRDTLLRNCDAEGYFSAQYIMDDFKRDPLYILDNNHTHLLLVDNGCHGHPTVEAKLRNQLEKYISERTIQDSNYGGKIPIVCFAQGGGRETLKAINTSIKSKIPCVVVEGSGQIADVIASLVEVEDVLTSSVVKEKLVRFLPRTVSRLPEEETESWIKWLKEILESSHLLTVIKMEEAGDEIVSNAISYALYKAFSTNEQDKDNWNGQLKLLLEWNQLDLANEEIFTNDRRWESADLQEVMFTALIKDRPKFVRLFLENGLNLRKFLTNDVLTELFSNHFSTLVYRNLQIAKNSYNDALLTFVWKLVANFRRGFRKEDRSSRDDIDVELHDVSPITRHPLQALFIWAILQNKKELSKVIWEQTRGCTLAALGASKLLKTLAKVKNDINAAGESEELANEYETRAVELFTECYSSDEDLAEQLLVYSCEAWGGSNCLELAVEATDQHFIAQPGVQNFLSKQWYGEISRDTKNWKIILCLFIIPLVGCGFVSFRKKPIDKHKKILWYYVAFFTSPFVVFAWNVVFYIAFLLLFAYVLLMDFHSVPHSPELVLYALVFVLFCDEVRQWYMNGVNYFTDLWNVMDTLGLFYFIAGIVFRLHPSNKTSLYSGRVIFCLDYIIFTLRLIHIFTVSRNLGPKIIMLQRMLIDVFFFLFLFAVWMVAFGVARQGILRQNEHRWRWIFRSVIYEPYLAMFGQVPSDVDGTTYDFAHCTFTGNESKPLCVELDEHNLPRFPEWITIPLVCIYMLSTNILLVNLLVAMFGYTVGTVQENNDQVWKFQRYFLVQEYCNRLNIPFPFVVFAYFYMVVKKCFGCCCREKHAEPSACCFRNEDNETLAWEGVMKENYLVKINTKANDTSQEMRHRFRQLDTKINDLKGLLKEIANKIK
T1 sequence (Q7Z2W7 whole entry): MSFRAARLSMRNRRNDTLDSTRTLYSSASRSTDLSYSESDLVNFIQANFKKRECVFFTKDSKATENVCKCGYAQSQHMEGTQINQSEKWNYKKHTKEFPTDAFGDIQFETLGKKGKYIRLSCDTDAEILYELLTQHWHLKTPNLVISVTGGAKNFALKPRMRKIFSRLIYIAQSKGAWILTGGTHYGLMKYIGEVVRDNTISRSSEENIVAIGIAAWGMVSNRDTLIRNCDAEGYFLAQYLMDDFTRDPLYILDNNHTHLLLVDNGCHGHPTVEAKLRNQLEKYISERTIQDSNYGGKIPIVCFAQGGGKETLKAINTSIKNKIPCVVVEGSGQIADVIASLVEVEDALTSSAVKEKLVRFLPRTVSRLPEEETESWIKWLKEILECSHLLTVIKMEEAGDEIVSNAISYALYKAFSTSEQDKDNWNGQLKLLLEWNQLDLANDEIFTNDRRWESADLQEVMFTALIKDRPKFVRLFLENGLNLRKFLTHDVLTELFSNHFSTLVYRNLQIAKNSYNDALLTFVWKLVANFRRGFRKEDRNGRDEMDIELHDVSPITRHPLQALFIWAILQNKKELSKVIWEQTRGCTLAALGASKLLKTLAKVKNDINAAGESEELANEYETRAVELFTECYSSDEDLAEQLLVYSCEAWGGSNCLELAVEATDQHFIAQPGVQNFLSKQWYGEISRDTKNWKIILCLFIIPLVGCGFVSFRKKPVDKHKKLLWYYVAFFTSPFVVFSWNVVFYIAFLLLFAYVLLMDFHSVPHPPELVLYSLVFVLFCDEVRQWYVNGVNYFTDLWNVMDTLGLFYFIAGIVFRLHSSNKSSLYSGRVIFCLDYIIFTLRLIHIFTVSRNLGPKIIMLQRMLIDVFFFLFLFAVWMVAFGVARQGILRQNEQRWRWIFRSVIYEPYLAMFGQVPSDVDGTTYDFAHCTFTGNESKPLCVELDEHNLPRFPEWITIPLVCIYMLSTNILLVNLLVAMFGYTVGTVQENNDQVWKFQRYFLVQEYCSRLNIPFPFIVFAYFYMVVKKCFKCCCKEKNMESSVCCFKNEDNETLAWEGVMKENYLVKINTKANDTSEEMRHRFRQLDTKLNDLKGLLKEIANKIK
T2 sequence (Q8R455 whole entry): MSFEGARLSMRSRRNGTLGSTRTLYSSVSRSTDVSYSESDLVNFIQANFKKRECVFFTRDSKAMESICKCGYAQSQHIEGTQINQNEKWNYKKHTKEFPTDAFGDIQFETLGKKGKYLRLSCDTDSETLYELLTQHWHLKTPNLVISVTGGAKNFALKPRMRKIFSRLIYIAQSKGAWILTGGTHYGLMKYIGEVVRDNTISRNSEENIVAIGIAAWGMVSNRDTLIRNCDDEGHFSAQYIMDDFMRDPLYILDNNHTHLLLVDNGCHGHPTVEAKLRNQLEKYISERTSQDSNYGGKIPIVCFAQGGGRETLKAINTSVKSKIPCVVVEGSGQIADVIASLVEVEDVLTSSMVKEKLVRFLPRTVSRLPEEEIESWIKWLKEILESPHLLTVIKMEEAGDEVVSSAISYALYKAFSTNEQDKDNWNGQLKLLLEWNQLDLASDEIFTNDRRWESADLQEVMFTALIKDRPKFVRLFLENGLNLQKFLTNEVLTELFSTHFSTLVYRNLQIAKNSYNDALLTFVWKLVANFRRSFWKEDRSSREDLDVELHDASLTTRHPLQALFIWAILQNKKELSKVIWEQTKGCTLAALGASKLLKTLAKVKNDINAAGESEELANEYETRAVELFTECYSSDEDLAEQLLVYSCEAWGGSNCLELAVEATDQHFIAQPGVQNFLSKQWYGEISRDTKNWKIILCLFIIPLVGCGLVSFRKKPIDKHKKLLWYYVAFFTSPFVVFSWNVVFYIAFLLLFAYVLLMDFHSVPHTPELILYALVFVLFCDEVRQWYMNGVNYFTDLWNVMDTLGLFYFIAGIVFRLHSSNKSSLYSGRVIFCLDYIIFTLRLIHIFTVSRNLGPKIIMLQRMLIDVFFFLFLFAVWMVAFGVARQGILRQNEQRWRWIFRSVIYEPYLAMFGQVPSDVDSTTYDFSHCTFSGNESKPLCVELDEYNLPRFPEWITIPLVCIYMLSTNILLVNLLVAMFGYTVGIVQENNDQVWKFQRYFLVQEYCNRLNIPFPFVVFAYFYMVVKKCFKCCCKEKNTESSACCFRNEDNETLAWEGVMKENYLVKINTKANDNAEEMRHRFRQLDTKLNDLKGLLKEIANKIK

CC(C)OP(=O)(OC(C)C)[C@@H](Cc1ccc(F)c(F)c1)c1sc2ccccc2c1Br [Cpd 234, (S)-[1-(3-Bromo-benzo[b]thiophen-2-yl)-2-(3,4-difluoro-phenyl)-ethyl]-phosphonic acid diisopropyl ester]
ED50 (rats; po): 28.5 mg/kg | % Inhibition (rats; 10 mg/kg p.o.): 24.4% | % Inhibition (rats; 30 mg/kg p.o.): 56.1% | % Inhibition (rats; 100 mg/kg p.o.): 75.1% | IC50 (human TRPM8): 0.054 nM | IC50 (rat TRPM8): 0.053 nM | IC50 (canine TRPM8; IC50, mode of activation Cold (10° C.), HEK293 cells stably transfected with canine TRPM8, cooling to 10° C.): 1.6 nM | IC50 (canine TRPM8; [1]): 4.7 nM | ED50 (male SD rats; preRx 1 hr): 14.8 mg/kg | % of Allodynic Baseline (male SD rats; 3 mg/kg p.o., preRx 1 hr): 16.7% | % of Allodynic Baseline (male SD rats; 3 mg/kg p.o., preRx 2 hr): 10.0% | % of Allodynic Baseline (male SD rats; 10 mg/kg p.o., preRx 1 hr): 51.7% | % of Allodynic Baseline (male SD rats; 30 mg/kg p.o., preRx 1 hr): 59.6% | % of Allodynic Baseline (male SD rats; 30 mg/kg p.o., preRx 2 hr): 56.7% | % of Allodynic Baseline (male SD rats; 100 mg/kg p.o., preRx 1 hr): 83.1% | % of Allodynic Baseline (male SD rats; 100 mg/kg p.o., preRx 2 hr): 93.3%

CC(C)OP(=O)(OC(C)C)[C@@H](Cc1ccc(F)c(C(F)(F)F)c1)c1sc2ccccc2c1Br [Cpd 242, (S)-[1-(3-Bromo-benzo[b]thiophen-2-yl)-2-(4-fluoro-3-trifluoromethyl-phenyl)-ethyl]-phosphonic acid diisopropyl ester]
% Inhibition (rats; 30 mg/kg p.o.): 79.9% | IC50 (human TRPM8): 0.049 nM | IC50 (rat TRPM8): 0.056 nM | IC50 (canine TRPM8; [1]): 0.4 nM | ED50 (male SD rats; preRx 3 hr): 18 mg/kg | % of Allodynic Baseline (male SD rats; 3 mg/kg p.o., preRx 3 hr): 15.0% | % of Allodynic Baseline (male SD rats; 10 mg/kg p.o., preRx 3 hr): 30.0% | % of Allodynic Baseline (male SD rats; 30 mg/kg i.p., preRx 2 hr): 63.3% | % of Allodynic Baseline (male SD rats; 30 mg/kg p.o., preRx 3 hr): 66.7% | % of Allodynic Baseline (male SD rats; 100 mg/kg p.o., preRx 3 hr): 86.7%
